Results reported in patent US11046686B2, “Thiadiazole IRAK4 compounds” (Gilead Sciences, Inc., priority 2018, dated 2021).
Where two headings read alike, the source gives them in different places.

How the values were obtained:
TNFα = assay: IRAK4 Monocyte TNFα Cell Based Assay; design: species or system human
Method in brief: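 TNFα release quantified by HTRF (cryptate/XL665 antibody pair, overnight at RT) after 1 h compound pre-incubation (0.1% DMSO) and 4 h LPS challenge at 50 pg/ml, 37 °C, 5,000 monocytes per well. Signal ratio normalised between unstimulated (0%) and stimulated (100%) controls.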

IRAK4 enzyme = IRAK4 enzyme (Homo sapiens (Human), UniProt Q9NWZ3); assay: IRAK4 Biochemical Assay (TR-FRET, STK1 KinEASE)
Method: IRAK4 enzyme (Carna Biosciences, Chuo-ku, Kobe, Japan) activity was measured by detecting phosphorylated peptide substrate formation using an antibody against the phosphorylated peptide substrate. This is a time-resolved fluorescence resonance energy transfer (TR-FRET) immunoassay, based on the STK1 KinEASE Assay (Cisbio, Bedford, Mass.). The assay was designed as a simple two-step, endpoint assay (a 5 μl enzyme reaction followed by 5 μl stop and detect Solution) performed in ProxiPlate-384 Plus plates (Perkin Elmer, Waltham, Mass.). […] Compounds diluted in DMSO were spotted into 384 well plates using a Labcyte® Echo 550 Liquid Handling System prior to addition of IRAK4 enzyme and peptide substrate. Reaction solutions were delivered using a Multi-Flo (Bio-Tek Instruments). The enzyme and peptide solution was incubated with compound for 15 minutes at room temp before the reaction was initiated by the addition of ATP. The standard 5 μl reaction mixture contained 500 μM ATP, […] peptide (STK1 Peptide), 0.75 nM of IRAK4 in reaction buffer (50 mM HEPES, pH 7.0, 0.02% NaN3, 0.01% BSA, 0.1 mM Orthovanadate, 5 mM […], 0.025% NP-40, 1 mM DTT). After 120 min of incubation at room temperature, 5 μl of Stop and Detect Solution (1:100 Cryptate labeled anti-phosphorylated peptide antibody solution and 125 nM Tracer in a 50 mM HEPES pH 7.0 detection buffer containing sufficient EDTA) was added. The plate was then further incubated for 60 minutes at room temperature and read on Envision 2103 Multilabeled reader (PerkinElmer) with excitation/emission/FRET emission at 340 nm/615 nm665 nm, respectively. Fluorescence intensities at 615 nm and 665 nm emission wavelengths were expressed as aratio (665 nm/615 nm). Percentage of inhibition was calculated as below: % Inhibition=100×(Ratiosample−Ratio0% Inhibition)/(Ratio100% Inhibition−Ratio0% Inhibition)
The 0% inhibition value comes from control wells lacking inhibitor.

[1] = human monocytes, second part of Table 2, compounds 33-343, unit inferred, read-out: EC50 MONO TNF HTRF
[2] = second part of Table 2, compounds 33-343, unit inferred, read-out: IC50 IRAK4-HTBS
[3] = Homo sapiens, Monocyte, human monocytes, second part of Table 2, compounds 33-343, unit inferred, read-out: EC50 MONO TNF HTRF
[4] = Homo sapiens, Monocyte, human monocytes, LPS stimulated, compounds 1-32, read-out: EC50 TNF
[5] = compounds 1-32, read-out: IC50 HTRF

IRAK4 enzyme, sequence (Q9NWZ3 whole entry): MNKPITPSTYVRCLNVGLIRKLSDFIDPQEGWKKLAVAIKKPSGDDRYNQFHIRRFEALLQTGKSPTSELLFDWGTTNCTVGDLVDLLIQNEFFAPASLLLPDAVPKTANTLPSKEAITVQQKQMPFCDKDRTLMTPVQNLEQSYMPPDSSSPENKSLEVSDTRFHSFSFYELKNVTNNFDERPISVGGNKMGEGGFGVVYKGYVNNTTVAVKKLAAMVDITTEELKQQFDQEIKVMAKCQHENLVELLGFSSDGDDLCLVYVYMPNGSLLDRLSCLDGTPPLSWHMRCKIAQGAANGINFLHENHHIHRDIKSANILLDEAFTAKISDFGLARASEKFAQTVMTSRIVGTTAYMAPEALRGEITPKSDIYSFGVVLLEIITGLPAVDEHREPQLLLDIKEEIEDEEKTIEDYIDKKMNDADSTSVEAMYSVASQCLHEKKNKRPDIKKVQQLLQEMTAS

Row | SMILES | IC50 (IRAK4 enzyme) [nM] | EC50 (TNFα; [3]) [nM] | other results
1 | CC(=O)N[C@H]1CC[C@@H](c2nnc(-c3cnc(-c4ccc5cc(C#N)cnn45)cc3NC(C)C)s2)CC1 [Example 127, N-((1s,4s)-4-(5-(6-(3-cyanopyrrolo[1,2-b]pyridazin-7-yl)-4-(isopropylamino)pyridin-3-yl)-1,3,4-thiadiazol-2-yl)cyclohexyl)acetamide] | – | – | EC50 (TNFα; [1]): 9.9 nM; IC50 (IRAK4 enzyme; [2]): 0.64 nM
2 | CC(C)Nc1cc(-c2ccc3cc(C#N)cnn23)ncc1-c1nnc(N2C3CC2CN(C(=O)N2CCN(C)CC2)C3)s1 [Compound 277, 7-(4-(isopropylamino)-5-(5-(3-(4-methylpiperazine-1-carbonyl)-3,6-diazabicyclo[3.1.1]heptan-6-yl)-1,3,4-thiadiazol-2-yl)pyridin-2-yl)pyrrolo[1,2-b]pyridazine-3-carbonitrile] | 0.93 | – | EC50 (TNFα; Homo sapiens, Monocyte, read-out: EC50 MONO TNF HTRF): 11.3 nM
3 | CC(C)Nc1cc(-c2ccc3cc(C#N)cnn23)ncc1-c1nnc(C2CCN(CC(F)F)CC2)s1 [Example 133, 7-(5-(5-(1-(2,2-difluoroethyl)piperidin-4-yl)-1,3,4-thiadiazol-2-yl)-4-(isopropylamino)pyridin-2-yl)pyrrolo[1,2-b]pyridazine-3-carbonitrile] | 1.47 | 531 | –
4 | CC(C)Nc1cc(-c2ccc3cc(C#N)cnn23)ncc1-c1nnc(N2CCN3CCOC[C@H]3C2)s1 [Example 36, (R)-7-(5-(5-(hexahydropyrazino[2,1-c][1,4]oxazin-8(1H)-yl)-1,3,4-thiadiazol-2-yl)-4-(isopropylamino)pyridin-2-yl)pyrrolo[1,2-b]pyridazine-3-carbonitrile] | 0.48 | 5 | –
5 | CC(=O)NC1CC=C(c2nnc(-c3cnc(-c4ccc5cc(C#N)cnn45)cc3NC(C)C)s2)CC1 (centres unmarked) [Example 313, N-(4-(5-(6-(3-cyanopyrrolo[1,2-b]pyridazin-7-yl)-4-(isopropylamino)pyridin-3-yl)-1,3,4-thiadiazol-2-yl)cyclohex-3-en-1-yl)acetamide] | 1.47 | 48.6 | –
6 | CC(=O)NC1CCN(c2nnc(-c3cnc(-c4ccc5cc(C#N)cnn45)cc3NC(C)C)s2)CC1 [Example 6, N-(1-(5-(6-(3-cyanopyrrolo[1,2-b]pyridazin-7-yl)-4-(isopropylamino)pyridin-3-yl)-1,3,4-thiadiazol-2-yl)piperidin-4-yl)acetamide] | – | – | EC50 (TNFα; [4]): 19 nM; IC50 (IRAK4 enzyme; [5]): < 1 nM
7 | COC(=O)N[C@@H]1CCN(C(=O)c2nnc(-c3cnc(-c4ccc5cc(C#N)cnn45)cc3NC(C)C)s2)C1 [Example 44, methyl (R)-(1-(5-(6-(3-cyanopyrrolo[1,2-b]pyridazin-7-yl)-4-(isopropylamino)pyridin-3-yl)-1,3,4-thiadiazole-2-carbonyl)pyrrolidin-3-yl)carbamate] | 0.53 | 27.4 | –
8 | CC(C)Nc1cc(-c2ccc3cc(C#N)cnn23)ncc1-c1nnc(C(=O)N2CCC[C@@H]2CO)s1 [Example 214, (R)-7-(5-(5-(2-(hydroxymethyl)pyrrolidine-1-carbonyl)-1,3,4-thiadiazol-2-yl)-4-(isopropylamino)pyridin-2-yl)pyrrolo[1,2-b]pyridazine-3-carbonitrile] | 0.46 | 33.2 | –
9 | CC(=O)N[C@@H]1CCN(c2nnc(-c3cnc(-c4ccc5cc(C#N)cnn45)cc3NC(C)C)s2)C[C@H]1O [Example 65, N-((3R,4R)-1-(5-(6-(3-cyanopyrrolo[1,2-b]pyridazin-7-yl)-4-(isopropylamino)pyridin-3-yl)-1,3,4-thiadiazol-2-yl)-3-hydroxypiperidin-4-yl)acetamide] | 0.3 | 10.6 | –
10 | CNC(=O)c1nnc(-c2cnc(-c3ccc4cc(C#N)cnn34)cc2NC(C)C)s1 [Example 15, 5-(6-(3-cyanopyrrolo[1,2-b]pyridazin-7-yl)-4-(isopropylamino)pyridin-3-yl)-N-methyl-1,3,4-thiadiazole-2-carboxamide] | – | – | EC50 (TNFα; [4]): 3390 nM; IC50 (IRAK4 enzyme; [5]): < 1 nM
11 | CC(=O)N[C@H]1CC[C@H](c2nnc(-c3cnc(-c4ccc5cc(C#N)cnn45)cc3N[C@H](C)C#N)s2)CC1 [Example 316, N-((1R,4r)-4-(5-(4-(((R)-1-cyanoethyl)amino)-6-(3-cyanopyrrolo[1,2-b]pyridazin-7-yl)pyridin-3-yl)-1,3,4-thiadiazol-2-yl)cyclohexyl)acetamide] | 0.59 | 5.3 | –
12 | CC(C)Nc1cc(-c2ccc3cc(C#N)cnn23)ncc1-c1nnc(C(=O)NC[C@@H](F)C(C)(C)O)s1 [Example 14, (R)-5-(6-(3-cyanopyrrolo[1,2-b]pyridazin-7-yl)-4-(isopropylamino)pyridin-3-yl)-N-(2-fluoro-3-hydroxy-3-methylbutyl)-1,3,4-thiadiazole-2-carboxamide] | – | – | EC50 (TNFα; [4]): 79 nM; IC50 (IRAK4 enzyme; [5]): < 1 nM
13 | C[C@]1(O)CC[C@@H](c2nnc(-c3cnc(-c4ccc5cc(C#N)cnn45)cc3NC3COC3)s2)CC1 [Example 208, 7-(5-(5-((1s,4s)-4-hydroxy-4-methylcyclohexyl)-1,3,4-thiadiazol-2-yl)-4-(oxetan-3-ylamino)pyridin-2-yl)pyrrolo[1,2-b]pyridazine-3-carbonitrile] | – | – | EC50 (TNFα; [1]): 13.6 nM; IC50 (IRAK4 enzyme; [2]): 0.67 nM
14 | CC(C)Nc1cc(-c2ccc3cc(C#N)cnn23)ncc1-c1nnc(N2CC(O)(C(F)(F)F)C2)s1 [Example 297, 7-(5-(5-(3-hydroxy-3-(trifluoromethyl)azetidin-1-yl)-1,3,4-thiadiazol-2-yl)-4-(isopropylamino)pyridin-2-yl)pyrrolo[1,2-b]pyridazine-3-carbonitrile] | 0.67 | 10 | –
15 | CC(=O)N[C@H]1CCN(c2nnc(-c3cnc(-c4ccc5cc(C#N)cnn45)cc3N[C@H](C)C#N)s2)CC1(F)F [Example 152, N-((S)-1-(5-(4-(((R)-1-cyanoethyl)amino)-6-(3-cyanopyrrolo[1,2-b]pyridazin-7-yl)pyridin-3-yl)-1,3,4-thiadiazol-2-yl)-3,3-difluoropiperidin-4-yl)acetamide] | 0.58 | 10.7 | –
16 | CC(C)Nc1cc(-c2ccc3cc(C#N)cnn23)ncc1-c1nncs1 [Example 211, 7-(4-(isopropylamino)-5-(1,3,4-thiadiazol-2-yl)pyridin-2-yl)pyrrolo[1,2-b]pyridazine-3-carbonitrile] | – | 78.2 | IC50 (IRAK4 enzyme; [2]): 0.98 nM
17 | CC(=O)NC1[C@@H]2COC[C@H]1CN(c1nnc(-c3cnc(-c4ccc5cc(C#N)cnn45)cc3NC(C)C)s1)C2 (stereo partly drawn) [Example 193, N-((1R,5S)-7-(5-(6-(3-cyanopyrrolo[1,2-b]pyridazin-7-yl)-4-(isopropylamino)pyridin-3-yl)-1,3,4-thiadiazol-2-yl)-3-oxa-7-azabicyclo[3.3.1]nonan-9-yl)acetamide] | 0.68 | 4.1 | –
18 | CC(=O)NC12CCC(c3nnc(-c4cnc(-c5ccc6cc(C#N)cnn56)cc4NC4COC4)s3)(CC1)OC2 [Example 198, N-(1-(5-(6-(3-cyanopyrrolo[1,2-b]pyridazin-7-yl)-4-(oxetan-3-ylamino)pyridin-3-yl)-1,3,4-thiadiazol-2-yl)-2-oxabicyclo[2.2.2]octan-4-yl)acetamide] | 0.79 | – | –
19 | CC(C)Nc1cc(-c2ccc3cc(C#N)cnn23)ncc1-c1nnc([C@H]2C[C@H](NC3COC3)C2)s1 [Example 283, 7-(4-(isopropylamino)-5-(5-((1r,3r)-3-(oxetan-3-ylamino)cyclobutyl)-1,3,4-thiadiazol-2-yl)pyridin-2-yl)pyrrolo[1,2-b]pyridazine-3-carbonitrile] | 0.66 | – | –
20 | CC(C)Nc1cc(-c2ccc3cc(C#N)cnn23)ncc1-c1nnc(C2CCNCC2)s1 [Example 129, 7-(4-(isopropylamino)-5-(5-(piperidin-4-yl)-1,3,4-thiadiazol-2-yl)pyridin-2-yl)pyrrolo[1,2-b]pyridazine-3-carbonitrile] | 0.59 | – | –
21 | CC(=O)NC12CCC(c3nnc(-c4cnc(-c5ccc6cc(C#N)cnn56)cc4N[C@H](C)C#N)s3)(CC1)CC2 [Example 72, (R)—N-(4-(5-(4-((1-cyanoethyl)amino)-6-(3-cyanopyrrolo[1,2-b]pyridazin-7-yl)pyridin-3-yl)-1,3,4-thiadiazol-2-yl)bicyclo[2.2.2]octan-1-yl)acetamide] | 0.54 | – | –
